The assay relates to C666-1 cells. The experiment in a line: C666-1 cell viability single concentration (50 μM) inhibition rate (Resazurin). It counts as cell-based. As to conditions: Homo sapiens, C6661, 72 h, 50 μM compound, 72 hours, C666-1 cells; read-out: C666-1 cell viability single concentration (50 μM) inhibition rate, Ratio* (Inh %). An outline of the steps: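 EBV-positive C666-1 cells (5×10^3/well), pre-cultured 24 h, were exposed to compound at 50 μmol/L final for 72 h at 37° C, 5% CO2, in duplicate. Viability by resazurin (3 h, ex 560/em 590 nm); inhibition rate computed relative to DMSO control and medium-only blank.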
(The colour change of resazurin is a common sign of viable cells or microbes.)

Consider `COC(=O)c1cccc(N2CC(Oc3cccc(Oc4ccccc4)c3)C2)c1-n1cccc1` [Example 222, Methyl 3-(3-(3-phenoxyphenoxy)azetidin-1-yl)-2-(1H-pyrrol-1-yl)benzoate], for which the inhibition at 50 µM is less than 10%. To `COC(=O)c1cccc(N2CC(Oc3ccc(NC(=O)Nc4ccccc4Cl)cc3)C2)c1-n1cccc1` [Example 135, Methyl 3-(3-(4-(3-(2-chlorophenyl)ureido)phenoxy)azetidin-1-yl)-2-(1H-pyrrol-1-yl)benzoate] belongs less than 10%; to `Cc1ccc(S(=O)(=O)NC2CN(c3cccc(C(=O)O)c3-n3cccc3)C2)cc1` [Example 177, 3-(3-((4-methylphenyl)sulfonamido)azetidin-1-yl)-2-(1H-pyrrol-1-yl)benzoic acid], less than 10%. As to `COC(=O)c1cccc(C#CN(Cc2ccc3c(ccn3C)c2)S(=O)(=O)c2ccc(C)cc2)c1-n1cccc1` [Example 316, Methyl 3-(((4-methyl-N-((1-methyl-1H-indol-5-yl)methyl)phenyl)sulfonamido)ethynyl)-2-(1H-pyrrol-1-yl)benzoate], the inhibition at 50 µM is less than 10%. To `COCCOc1ccc(OC2CN(c3cccc(C(=O)OC)c3-n3cccc3)C2)cc1OC` [Example 218, Methyl 3-(3-(3-methoxy-4-(2-methoxyethoxy)phenoxy)azetidin-1-yl)-2-(1H-pyrrol-1-yl)benzoate] belongs 10 to 30%; to `COC(=O)c1cccc(N2CC(Oc3ccc(CO)cc3)C2)c1-c1ccc2ccoc2c1` [Example 277], 10 to 30%; to `COC(=O)c1cccc(N2CC(OC(=O)Nc3ccc(C4CNCCO4)c(F)c3)C2)c1-n1cccc1` (stereo not shown) [Example 151, Methyl 3-(3-(((3-fluoro-4-(morpholin-2-yl)phenyl)carbamoyl)oxy)azetidin-1-yl)-2-(1H-pyrrol-1-yl)benzoate], 10 to 30%.

In the case of `COC(=O)c1cccc(N2CC(Oc3cccnc3)C2)c1-n1cccc1` [Example 259, Methyl 3-(3-(pyridin-3-yloxy)azetidin-1-yl)-2-(1H-pyrrol-1-yl)benzoate], the inhibition at 50 µM lay within 10 to 30%. To `COC(=O)c1cccc(N2CC(Oc3ccc(Oc4ccc(F)cc4)cc3)C2)c1-n1cccc1` [Example 202, Methyl 3-(3-(4-(4-fluorophenoxy)phenoxy)azetidin-1-yl)-2-(1H-pyrrol-1-yl)benzoate] belongs less than 10%; to `COC(=O)c1cccc(N2CC(Oc3ccc(COC4CCOC4)cc3)C2)c1-n1cccc1` (stereo not shown) [Example 375], less than 10%; to `COC(=O)c1cccc(N2CC(NC(=O)c3ccccc3)C2)c1-n1cccc1` [Example 178, Methyl 3-(3-benzamidoazetidin-1-yl)-2-(1H-pyrrol-1-yl)benzoate], 10 to 30%. For `N#Cc1cccc(-c2c(C(=O)O)cccc2N2CC(Oc3ccc(CO)cc3)C2)c1` [Example 278], the inhibition at 50 µM was 10 to 30%. As to `N#Cc1cccc(NC(=O)Nc2ccc(OC3CN(c4cccc(C(=O)O)c4-n4cccc4)C3)cc2)c1` [Example 138, 3-(3-(4-(3-(3-cyanophenyl)ureido)phenoxy)azetidin-1-yl)-2-(1H-pyrrol-1-yl)benzoic acid], the inhibition at 50 µM was less than 10%. Take `COC(=O)c1cccc(N2CC(Oc3cccc(C(=O)O)c3)C2)c1N` [Example 282, Methyl 2-amino-3-(3-(3-carboxylphenoxy)azetidin-1-yl)benzoate]: the inhibition at 50 µM is less than 10%. On to `COC(=O)c1cccc(N2CC(Oc3ccc(OCCN)c(OC)c3)C2)c1-n1cccc1` [Example 311, Methyl 3-(3-(4-(2-aminoethoxy)-3-methoxyphenoxy)azetidin-1-yl)-2-(1H-pyrrol-1-yl)benzoate], for which the inhibition at 50 µM fell in the range of 10 to 30%. For `O=C(Nc1ccc(F)cc1)c1ccc(OC2CN(c3cccc(C(=O)O)c3-n3cccc3)C2)cc1` [Example 268, 3-(3-(4-((4-fluorophenyl)carbamoyl)phenoxy)azetidin-1-yl)-2-(1H-pyrrol-1-yl)benzoic acid], the inhibition at 50 µM was less than 10%.
